Assay results: US12077503B2, “Substituted cyclic amides and their use as herbicides” (FMC CORPORATION, priority 2015, dated 2024)

Key:
Type in all cases: in vivo
Kochia (Kochia scoparia) [1] = experiment: Test A preemergence; conditions: for Plant response rating, Kochia: 125 g ai/ha; for Kochia plant response rating (0 to 100 scale, 0 is no effect, 100 is complete control): 500 g ai/ha, visual injury approx. 10 d
Summary of the method: (§1)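 In a loam soil and sand blend, planted seeds got a preemergence directed soil spray, and young plants at the one- to two-leaf stage, 2–10 cm high, got a postemergence application; ~10 d greenhouse hold; injury rated visually, 0 = none, 100 = complete control.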

[2] = system: barnyardgrass (Echinochloa crus-galli); experiment: Test A preemergence; conditions: for Plant response rating, Barnyardgrass: 125 g ai/ha; for Barnyardgrass plant response rating (0 to 100 scale, 0 is no effect, 100 is complete control): 500 g ai/ha, visual injury approx. 10 d
Summary of the method: as §1

[3] = system: giant foxtail (Setaria faberii); experiment: Test A preemergence; conditions: for Plant response rating, Foxtail, Giant: 125 g ai/ha; for Foxtail, Giant plant response rating (0 to 100 scale, 0 is no effect, 100 is complete control): 500 g ai/ha, visual injury approx. 10 d
Summary of the method: as §1

[4] = system: pigweed (Amaranthus retroflexus); experiment: Test A preemergence; conditions: for Plant response rating, Pigweed: 125 g ai/ha; for Pigweed plant response rating (0 to 100 scale, 0 is no effect, 100 is complete control): 500 g ai/ha, visual injury approx. 10 d
[5] = system: ragweed (common ragweed, Ambrosia elatior); experiment: Test A preemergence; conditions: for Plant response rating, Ragweed: 125 g ai/ha; for Ragweed plant response rating (0 to 100 scale, 0 is no effect, 100 is complete control): 500 g ai/ha, visual injury approx. 10 d
Summary of the method: as §1

[6] = system: ryegrass, Italian (Italian ryegrass, Lolium multiflorum); experiment: Test A preemergence; conditions: for Plant response rating, Ryegrass, Italian: 125 g ai/ha; for Ryegrass, Italian plant response rating (0 to 100 scale, 0 is no effect, 100 is complete control): 500 g ai/ha, visual injury approx. 10 d
Summary of the method: as §1

[7] = system: Galium (catchweed bedstraw, Galium aparine); experiment: Test A postemergence
Summary of the method: as §1

Kochia (Kochia scoparia) [8] = experiment: Test A postemergence
Summary of the method: as §1

[9] = system: barnyardgrass (Echinochloa crus-galli); experiment: Test A postemergence; conditions: for Barnyardgrass plant response rating: 125 g ai/ha, visual injury rating on 0 to 100 scale (0 no effect, 100 complete control), approx. 10 d; for Plant response rating, Barnyardgrass: 500 g ai/ha
Summary of the method: as §1

[10] = system: blackgrass (Alopecurus myosuroides); experiment: Test A postemergence; conditions: for Blackgrass plant response rating: 125 g ai/ha, visual injury rating on 0 to 100 scale (0 no effect, 100 complete control), approx. 10 d; for Plant response rating, Blackgrass: 500 g ai/ha
Summary of the method: as §1

corn (Zea mays) = experiment: Test A postemergence
Summary of the method: as §1

[11] = system: giant foxtail (Setaria faberii); experiment: Test A postemergence
Summary of the method: as §1

[12] = system: pigweed (Amaranthus retroflexus); experiment: Test A postemergence
Summary of the method: as §1

[13] = system: ragweed (common ragweed, Ambrosia elatior); experiment: Test A postemergence
Summary of the method: as §1

[14] = system: ryegrass, Italian (Italian ryegrass, Lolium multiflorum); experiment: Test A postemergence
Summary of the method: as §1

[15] = system: wheat (Triticum aestivum); experiment: Test A postemergence
Summary of the method: as §1

[16] = system: barnyardgrass (Echinochloa crus-galli); experiment: Test B flooded paddy test; conditions: Flood, 500 g ai/ha; 0 to 100 scale where 0 is no effect and 100 is complete control; 13 to 15 d
Summary of the method: (§2)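 2-leaf plants; pots flooded 3 cm over soil; cpd added to paddy water; depth held; greenhouse 13–15 d; visual rating vs controls, 0 = no effect, 100 = complete control.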

[17] = system: ducksalad (Heteranthera limosa); experiment: Test B flooded paddy test; conditions: Flood, 500 g ai/ha; 0 to 100 scale where 0 is no effect and 100 is complete control; 13 to 15 d
Summary of the method: as §2

rice (Oryra sativa) = experiment: Test B flooded paddy test; conditions: Flood, 500 g ai/ha; 0 to 100 scale where 0 is no effect and 100 is complete control; 13 to 15 d
Summary of the method: as §2

[18] = system: sedge, umbrella (small-flower umbrella sedge, Cyperus difformis); experiment: Test B flooded paddy test; conditions: Flood, 500 g ai/ha; 0 to 100 scale where 0 is no effect and 100 is complete control; 13 to 15 d
Summary of the method: as §2

[19] = Preemergence, visual injury after approximately 10 d, 0 to 100 scale where 0 is no effect and 100 is complete control
[20] = 125 g ai/ha, postemergence, visual rating after approx. 10 d, 0 to 100 scale (0 no effect, 100 complete control)
[21] = Postemergence, 500 g ai/ha, 0 to 100 scale where 0 is no effect and 100 is complete control
[22] = Postemergence, 0 to 100 scale where 0 is no effect and 100 is complete control
[23] = preemergence, 0 to 100 scale (0 no effect, 100 complete control)
[24] = 125 g ai/ha, postemergence, visual injury rating on 0 to 100 scale (0 no effect, 100 complete control), approx. 10 d
[25] = 500 g ai/ha, postemergence, 0 to 100 scale, 0 no effect, 100 complete control
[26] = postemergence, 0 to 100 scale, 0 no effect, 100 complete control

O=C1NCC(c2ccc(Oc3ccccc3)cc2)C1C(=O)Nc1ccccc1F (racemic) [Compound 534]
0: Plant response rating, Kochia (Kochia (Kochia scoparia) [1]; [19]) | Kochia plant response rating (0 to 100 scale, 0 is no effect, 100 is complete control) (Kochia (Kochia scoparia) [1]; Preemergence) | Plant response rating, Barnyardgrass [2, 19] | Barnyardgrass plant response rating (0 to 100 scale, 0 is no effect, 100 is complete control) ([2]; Preemergence) | Plant response rating, Foxtail, Giant [3, 19] | Foxtail, Giant plant response rating (0 to 100 scale, 0 is no effect, 100 is complete control) ([3]; Preemergence) | Plant response rating, Pigweed [4, 19] | Pigweed plant response rating (0 to 100 scale, 0 is no effect, 100 is complete control) ([4]; Preemergence) | Plant response rating, Ragweed [5, 19] | Ragweed plant response rating (0 to 100 scale, 0 is no effect, 100 is complete control) ([5]; Preemergence) | Plant response rating, Ryegrass, Italian [6, 19] | Ryegrass, Italian plant response rating (0 to 100 scale, 0 is no effect, 100 is complete control) ([6]; Preemergence) | Plant response rating, Galium [7, 20] | Plant response rating, Galium [7, 21] | Plant response rating, Kochia (Kochia (Kochia scoparia) [8]; [20]) | Plant response rating, Kochia (Kochia (Kochia scoparia) [8]; [21]) | Barnyardgrass plant response rating ([9]; postemergence) | Plant response rating, Barnyardgrass [9, 22] | Blackgrass plant response rating ([10]; postemergence) | Plant response rating, Blackgrass [10, 22] | Plant response rating, Corn (corn (Zea mays); [20]) | Plant response rating, Corn (corn (Zea mays); [21]) | Plant response rating, Foxtail, Giant [11, 20] | Plant response rating, Foxtail, Giant [11, 21] | Plant response rating, Pigweed [12, 20] | Plant response rating, Pigweed [12, 21] | Plant response rating, Ragweed [13, 20] | Plant response rating, Ragweed [13, 21] | Plant response rating, Ryegrass, Italian [14, 20] | Plant response rating, Ryegrass, Italian [14, 21] | Plant response rating, Wheat [15, 20] | Plant response rating, Wheat [15, 21] | Plant response rating, Barnyardgrass [16] | Plant response rating, Ducksalad [17] | Plant response rating, Sedge, Umbrella [18]
20: Plant response rating, Rice (rice (Oryra sativa))

Cc1ccc(F)c(NC(=O)C2C(=O)NCC2c2ccc(F)c(F)c2)c1 (stereo not drawn) [Compound 408]
0: Plant response rating, Kochia (Kochia (Kochia scoparia) [1]; [23]) | Kochia plant response rating (0 to 100 scale, 0 is no effect, 100 is complete control) (Kochia (Kochia scoparia) [1]; Preemergence) | Plant response rating, Barnyardgrass [2, 23] | Barnyardgrass plant response rating (0 to 100 scale, 0 is no effect, 100 is complete control) ([2]; Preemergence) | Plant response rating, Foxtail, Giant [3, 23] | Foxtail, Giant plant response rating (0 to 100 scale, 0 is no effect, 100 is complete control) ([3]; Preemergence) | Plant response rating, Pigweed [4, 23] | Pigweed plant response rating (0 to 100 scale, 0 is no effect, 100 is complete control) ([4]; Preemergence) | Plant response rating, Ragweed [5, 23] | Ragweed plant response rating (0 to 100 scale, 0 is no effect, 100 is complete control) ([5]; Preemergence) | Plant response rating, Ryegrass, Italian [6, 23] | Ryegrass, Italian plant response rating (0 to 100 scale, 0 is no effect, 100 is complete control) ([6]; Preemergence) | Galium plant response rating [7, 24] | Plant response rating, Galium [7, 25] | Kochia plant response rating (Kochia (Kochia scoparia) [8]; [24]) | Plant response rating, Kochia (Kochia (Kochia scoparia) [8]; [25]) | Barnyardgrass plant response rating ([9]; postemergence) | Plant response rating, Barnyardgrass [9, 26] | Blackgrass plant response rating ([10]; postemergence) | Plant response rating, Blackgrass [10, 26] | Corn plant response rating (corn (Zea mays); [24]) | Plant response rating, Corn (corn (Zea mays); [25]) | Foxtail, Giant plant response rating [11, 24] | Plant response rating, Foxtail, Giant [11, 25] | Pigweed plant response rating [12, 24] | Plant response rating, Pigweed [12, 25] | Ragweed plant response rating [13, 24] | Plant response rating, Ragweed [13, 25] | Ryegrass, Italian plant response rating [14, 24] | Plant response rating, Ryegrass, Italian [14, 25] | Wheat plant response rating [15, 24] | Plant response rating, Wheat [15, 25] | Plant response rating, Barnyardgrass [16] | Plant response rating, Ducksalad [17] | Plant response rating, Rice (rice (Oryra sativa)) | Plant response rating, Sedge, Umbrella [18]
